# Reference: patent US20140303373A1, “CRYSTALLINE FORM OF TIOTROPIUM BROMIDE” (CERBIOS-PHARMA SA, priority 2013, published 2014)
# Tests used:
# [1] = stability at 25° C./60% relative humidity (impurity profile and X-ray spectrum); type: physicochemical
# [2] = accelerated stability study, related substances by HPLC (Eur. Ph. 07/2010:2420); type: physicochemical
# Description: The tiotropium bromide accelerated stability studies were performed storing the drug substance, prepared as described in the previous examples, at 40±2° C./75±5% RH. Stability was evaluated in dark glass vial with screw cap. The frequency of the analyses performed has included five test points: 0, 7 days, 1, 3, and 6 months. Related substances amount of tiotropium bromide was measured by HPLC, following the Eur. Ph. procedure (07/2010:2420).
smiles,measurement,setting,value
C[N+]1(C)C2CC(OC(=O)C(O)(c3cccs3)c3cccs3)CC1[C@@H]1O[C@H]21.[Br-] (some centres unmarked) [Tiotropium Bromide],impurity profile and X-ray spectrum on storage,[1],did not change for at least six months
same,impurity profile and X-ray spectrum on storage,[2]; 40° C./75% RH,did not change for at least six months
same,"Related substances: Impurity A, RRT 0.40-0.47","[2]; 40±2° C./75±5% RH, 7 days",0.02
same,"Related substances: Impurity B, RRT 0.79-0.84","[2]; 40±2° C./75±5% RH, 7 days",0.04
same,"Related substances: unnamed, RRT 0.98","[2]; 40±2° C./75±5% RH, 7 days",0.03
same,"Related substances: unnamed, RRT 1.21-1.35","[2]; 40±2° C./75±5% RH, 7 days",0.01
same,"Related substances: unnamed, RRT 1.22-1.37","[2]; 40±2° C./75±5% RH, 7 days",0.02
same,Sum of impurities,"[2]; 40±2° C./75±5% RH, 7 days",0.12
same,"Tiotropium Bromide, RRT 1.00 (HPLC)","[2]; 40±2° C./75±5% RH, 7 days",99.88
same,"Related substances: Impurity A, RRT 0.40-0.47","[2]; 40±2° C./75±5% RH, 30 d",0.02
same,"Related substances: Impurity B, RRT 0.79-0.84","[2]; 40±2° C./75±5% RH, 30 d",0.04
same,"Related substances: unnamed, RRT 0.98","[2]; 40±2° C./75±5% RH, 30 d",0.03
same,"Related substances: unnamed, RRT 1.22-1.37","[2]; 40±2° C./75±5% RH, 30 d",0.03
same,Sum of impurities,"[2]; 40±2° C./75±5% RH, 30 d",0.12
same,"Tiotropium Bromide, RRT 1.00 (HPLC)","[2]; 40±2° C./75±5% RH, 30 d",99.88
same,"Related substances: Impurity A, RRT 0.40-0.47","[2]; 40±2° C./75±5% RH, 90 d",0.02
same,"Related substances: Impurity B, RRT 0.79-0.84","[2]; 40±2° C./75±5% RH, 90 d",0.04
same,"Related substances: Impurity E, RRT 1.73","[2]; 40±2° C./75±5% RH, 90 d",0.01
same,"Related substances: unnamed, RRT 0.39","[2]; 40±2° C./75±5% RH, 90 d",0.02
same,"Related substances: unnamed, RRT 0.98","[2]; 40±2° C./75±5% RH, 90 d",0.02
same,"Related substances: unnamed, RRT 1.21-1.35","[2]; 40±2° C./75±5% RH, 90 d",0.02
same,"Related substances: unnamed, RRT 1.22-1.37","[2]; 40±2° C./75±5% RH, 90 d",0.03
same,"Related substances: unnamed, RRT 1.50-1.53","[2]; 40±2° C./75±5% RH, 90 d",0.01
same,Sum of impurities,"[2]; 40±2° C./75±5% RH, 90 d",0.17
same,"Tiotropium Bromide, RRT 1.00 (HPLC)","[2]; 40±2° C./75±5% RH, 90 d",99.83
same,"Related substances: Impurity A, RRT 0.40-0.47","[2]; 40±2° C./75±5% RH, 180 d",0.02
same,"Related substances: Impurity B, RRT 0.79-0.84","[2]; 40±2° C./75±5% RH, 180 d",0.04
same,"Related substances: unnamed, RRT 0.98","[2]; 40±2° C./75±5% RH, 180 d",0.02
same,"Related substances: unnamed, RRT 1.21-1.35","[2]; 40±2° C./75±5% RH, 180 d",0.02
same,"Related substances: unnamed, RRT 1.22-1.37","[2]; 40±2° C./75±5% RH, 180 d",0.03
same,"Related substances: unnamed, RRT 1.50-1.53","[2]; 40±2° C./75±5% RH, 180 d",0.01
same,Sum of impurities,"[2]; 40±2° C./75±5% RH, 180 d",0.14
same,"Tiotropium Bromide, RRT 1.00 (HPLC)","[2]; 40±2° C./75±5% RH, 180 d",99.86
same,"Related substances: Impurity A, RRT 0.40-0.47","[2]; 40±2° C./75±5% RH, Time 0",0.02
same,"Related substances: Impurity B, RRT 0.79-0.84","[2]; 40±2° C./75±5% RH, Time 0",0.04
same,"Related substances: unnamed, RRT 0.98","[2]; 40±2° C./75±5% RH, Time 0",0.03
same,"Related substances: unnamed, RRT 1.21-1.35","[2]; 40±2° C./75±5% RH, Time 0",0.01
same,"Related substances: unnamed, RRT 1.22-1.37","[2]; 40±2° C./75±5% RH, Time 0",0.02
same,"Related substances: unnamed, RRT 1.50-1.53","[2]; 40±2° C./75±5% RH, Time 0",0.01
same,Sum of impurities,"[2]; 40±2° C./75±5% RH, Time 0",0.13
same,"Tiotropium Bromide, RRT 1.00 (HPLC)","[2]; 40±2° C./75±5% RH, Time 0",99.87
